Measured values reported in BindingDB's records for doi:10.3109/14756366.2012.719503 (Kinki University, 2013).

Target: Alpha-glucosidase MAL12 (Saccharomyces cerevisiae (strain ATCC 204508 / S288c), UniProt P53341)
Assay: α-glucosidase Inhibitory Activity Assay
Settings: pH 7; 25 °C
Protocol: α-glucosidase (25 μL, 0.2 U/mL), 25 μL of various concentrations of samples, and 175 μL of 50 mM sodium phosphate buffer (pH 7.0) were mixed at room temperaturefor 10 min. The reaction was started by the addition of 25 μL of 2.5 mM p-nitrophenyl-α-d-glucopyranoside. […] Control sample contained 25 μL DMSO in place of test samples.

Chain of Alpha-glucosidase MAL12 (P53341 whole entry): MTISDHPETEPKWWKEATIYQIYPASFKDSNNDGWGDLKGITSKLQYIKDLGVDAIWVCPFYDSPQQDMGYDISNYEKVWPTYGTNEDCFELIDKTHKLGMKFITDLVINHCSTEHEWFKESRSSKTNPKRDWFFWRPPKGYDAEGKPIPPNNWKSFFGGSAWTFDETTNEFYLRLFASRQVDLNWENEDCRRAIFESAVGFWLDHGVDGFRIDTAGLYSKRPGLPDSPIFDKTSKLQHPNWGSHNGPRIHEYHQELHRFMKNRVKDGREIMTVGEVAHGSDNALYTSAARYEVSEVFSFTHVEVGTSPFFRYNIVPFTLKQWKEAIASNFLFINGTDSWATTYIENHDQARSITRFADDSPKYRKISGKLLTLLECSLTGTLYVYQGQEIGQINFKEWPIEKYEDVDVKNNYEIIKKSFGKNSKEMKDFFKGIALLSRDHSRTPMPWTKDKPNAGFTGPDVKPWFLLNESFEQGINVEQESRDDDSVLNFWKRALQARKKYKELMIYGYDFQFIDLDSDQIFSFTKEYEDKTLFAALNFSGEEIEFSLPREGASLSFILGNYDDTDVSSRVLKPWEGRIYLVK

IC50 [µM]	Compound
> 300	COc1cc(C(=O)OC[C@H]2OC3c4c(cc(O)c(OC)c4O)C(=O)OC3[C@@H](O)[C@@H]2O)cc(OC)c1O (stereo not given in full) [11-O-syringylbergenin (9)]
143	COc1c(O)cc2c(c1O)C1O[C@H](COC(=O)c3ccc(O)cc3)[C@@H](O)[C@H](O)C1OC2=O (stereo not given in full) [11-O-p-hydroxybenzoylbergenin (3)]
187	COc1cc(C(=O)OC[C@H]2OC3c4c(cc(O)c(OC)c4O)C(=O)OC3[C@@H](O)[C@@H]2O)ccc1O (stereo not given in full) [11-O-vanilloylbergenin (7)]
24.6	COc1ccc(C(=O)OC[C@H]2OC3c4c(cc(O)c(OC)c4O)C(=O)OC3[C@@H](O)[C@@H]2O)cc1OC (stereo not given in full) [11-O-(3',4'-dimethoxybenzoyl)-bergenin (6)]
118	COc1c(O)cc2c(c1O)C1O[C@H](COC(=O)c3ccccc3)[C@@H](O)[C@H](O)C1OC2=O (stereo not given in full) [11-O-benzoylbergenin (2)]
290	COc1c(O)cc2c(c1O)C1O[C@H](COC(=O)c3ccc(O)c(O)c3)[C@@H](O)[C@H](O)C1OC2=O (stereo not given in full) [11-O-protocatechuoylbergenin (5)]
> 300	COc1cc(OC)cc(C(=O)OC[C@H]2OC3c4c(cc(O)c(OC)c4O)C(=O)OC3[C@@H](O)[C@@H]2O)c1 (stereo not given in full) [11-O-(3',5'-dimethoxybenzoyl)-bergenin (8)]
144	COc1ccc(C(=O)OC[C@H]2OC3c4c(cc(O)c(OC)c4O)C(=O)OC3[C@@H](O)[C@@H]2O)cc1 (stereo not given in full) [11-O-p-methoxybenzoylbergenin (4)]
> 300	COc1ccc(C(=O)O)cc1 [Anisic acid]
> 300	O=C(O)c1ccc(O)cc1 [4-Hydroxybenzoate, III]
> 300	COc1c(O)cc2c(c1O)C1O[C@H](CO)[C@@H](O)[C@H](O)C1OC2=O (stereo not given in full) [Bergenin (1)]

Compound	IC50 [µM]
COc1ccc(C(=O)O)cc1OC [3,4-dimethoxybenzoic acid]	> 300
COc1cc(C(=O)O)ccc1O [4-hydroxy-3-methoxybenzoic acid]	> 300
O=C(O)c1ccccc1 [SAMPL4, O1]	> 300
O=C(O)c1ccc(O)c(O)c1 [Protocatechuic acid (M1)]	> 300
